Laboratory results from the supplement of paper PMC10307832.

Key:
Assay in all cases: relative viability (nuclei count vs DMSO), 5 days (fraction); higher = more cells survive
Ruxolitinib + Pemetrexed = compound: N#CC[C@H](C1CCCC1)n1cc(-c2ncnc3[nH]ccc23)cn1 [Ruxolitinib] + Nc1nc2[nH]cc(CCc3ccc(C(=O)N[C@@H](CCC(=O)O)C(=O)O)cc3)c2c(=O)[nH]1 [Pemetrexed] (partner 0.2 µM)
Outline: (§1)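 The day after seeding in 1536-well plates, lung cancer cell lines were treated by pin tool with a single drug, or with a fixed anchor-drug dose together with five library-drug doses (not always all listed) in √10 steps. After 5 days, a combined fix-and-stain solution (final 0.05% Triton X-100, 1% formaldehyde, 1 ug/ml Hoechst) was added. Nuclei counted on 4× images gave relative viability as treated counts over vehicle counts, reported as the median of duplicate plates.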

Vismodegib + Pictilisib = compound: CS(=O)(=O)c1ccc(C(=O)Nc2ccc(Cl)c(-c3ccccn3)c2)c(Cl)c1 [Vismodegib] + CS(=O)(=O)N1CCN(Cc2cc3nc(-c4cccc5[nH]ncc45)nc(N4CCOCC4)c3s2)CC1 [Pictilisib] (partner 1 µM)
Outline: as §1

[1] = compound: N#CC[C@H](C1CCCC1)n1cc(-c2ncnc3[nH]ccc23)cn1 [Ruxolitinib] + CC(=O)c1c(C)c2cnc(Nc3ccc(N4CCNCC4)cn3)nc2n(C2CCCC2)c1=O [Palbociclib] (partner 0.5 µM)
Outline: as §1

Vismodegib + Linsitinib = compound: CS(=O)(=O)c1ccc(C(=O)Nc2ccc(Cl)c(-c3ccccn3)c2)c(Cl)c1 [Vismodegib] + C[C@]1(O)C[C@@H](c2nc(-c3ccc4ccc(-c5ccccc5)nc4c3)c3c(N)nccn32)C1 [Linsitinib] (partner 1 µM)
Outline: as §1

Cell Line	relative viability (Ruxolitinib + Pemetrexed; first compound 0.08 µM)	relative viability (Ruxolitinib + Pemetrexed; first compound 0.253 µM)	relative viability (Ruxolitinib + Pemetrexed; first compound 0.8 µM)	relative viability (Ruxolitinib + Pemetrexed; first compound 2.53 µM)	relative viability (Ruxolitinib + Pemetrexed; first compound 8 µM)	relative viability (Vismodegib + Pictilisib; first compound 0.08 µM)	relative viability (Vismodegib + Pictilisib; first compound 0.253 µM)	relative viability (Vismodegib + Pictilisib; first compound 0.8 µM)	relative viability (Vismodegib + Pictilisib; first compound 2.53 µM)	relative viability (Vismodegib + Pictilisib; first compound 8 µM)	relative viability ([1]; first compound 0.08 µM)	relative viability ([1]; first compound 0.253 µM)	relative viability ([1]; first compound 0.8 µM)	relative viability ([1]; first compound 2.53 µM)	relative viability ([1]; first compound 8 µM)	relative viability (Vismodegib + Linsitinib; first compound 0.08 µM)	relative viability (Vismodegib + Linsitinib; first compound 0.253 µM)	relative viability (Vismodegib + Linsitinib; first compound 0.8 µM)	relative viability (Vismodegib + Linsitinib; first compound 2.53 µM)	relative viability (Vismodegib + Linsitinib; first compound 8 µM)
NCI-H1650	0.311	0.43	0.351	0.333	0.346	0.557	0.587	0.558	0.529	0.639	0.333	0.345	0.395	0.287	0.356					
NCI-H2023	0.264	0.271	0.23	0.233	0.23	0.268	0.229	0.195	0.238	0.254	0.42	0.4	0.361	0.387	0.397	0.596	0.662	0.675	0.579	0.618
SK-LU-1	1.03	1.02	1.01	0.919	0.792	0.503	0.666	0.636	0.583	0.643	0.426	0.416	0.421	0.374	0.336	1.35	1.06	1.23	0.693	1.13
NCI-H2347	0.459	0.407	0.451	0.406	0.434	0.563	0.664	0.637	0.609	0.717	0.425	0.395	0.42	0.43	0.478	0.902	0.997	0.857	0.962	1.04
NCI-H727						0.525	0.395	0.277	0.257	0.402	0.539	0.676	0.586	0.611	0.713	0.336	0.319	0.286	0.376	0.239
COR-L23	0.203	0.191	0.201	0.195	0.191	0.803	0.658	0.714	0.675	0.786	0.343	0.273	0.371	0.248	0.222	0.934	0.812	0.972	0.859	1.1
NCI-H2126	0.757	0.736	0.789	0.721	0.663	0.519	0.521	0.446	0.493	0.484	0.382	0.333	0.371	0.363	0.363	0.667	0.711	0.638	0.762	0.677
NCI-H1703						0.223	0.216	0.302	0.254	0.249						0.928	0.77	0.928	0.618	1.19
H3255	0.506	0.553	0.569	0.528	0.473	0.483	0.481	0.479	0.471	0.471	0.307	0.297	0.315	0.266	0.263	0.967	0.88	1	0.959	0.897
NCI-H1915	0.512	0.501	0.515	0.518	0.439	0.997	1.01	0.851	0.826	0.727	0.515	0.516	0.579	0.443	0.481	1.11	1.15	1.06	1.1	1.1
NCI-H358	0.174	0.152	0.177	0.163	0.126	0.301	0.326	0.294	0.37	0.34	0.167	0.125	0.16	0.14	0.127	0.777	0.667	0.712	0.817	0.765
ABC-1						0.602	0.841	0.712	0.757	0.772		0.831	0.652	0.808	0.754	0.666	0.682	0.79	0.821	0.794
NCI-H596	0.507	0.481	0.607	0.462	0.717	0.385	0.404	0.391	0.391	0.397						0.976	1.07	1.1	1.01	1.15
NCI-H1648	0.674	0.838	0.739	0.923	1.02						0.294	0.302	0.344	0.345	0.371					
A549						0.507	0.465	0.478	0.56	0.432						0.537	0.566	0.448	0.526	0.615
NCI-H1563	0.724	0.744	0.892	0.774	0.544	0.649	0.591	0.647	0.643	0.72						1.17	1.34	1.26	1.01	1.2
NCI-H2170	0.256	0.262	0.259	0.266	0.276	0.301	0.286	0.306	0.347	0.325	0.382	0.39	0.412	0.359	0.407					
IA-LM						0.363	0.354	0.277	0.281	0.379						0.629	0.493	0.68	0.579	0.63
NCI-H522	1.04	0.973	1.05	0.964	0.857						1.12	1.09	1.16	0.869	0.933					
EBC-1						0.38	0.433	0.386	0.426	0.433						0.871	0.901	0.981	0.778	0.883
Calu-6						0.934	0.915	0.886	0.918	0.859						1	0.9	0.952	0.904	1.02
